According to patent US20250186374A1 (priority 2022, published 2025):
“Also recorded” adds a separate entry of the source. Read-outs that look alike come from different tables or passages of the source.

Experiments:
SARS-CoV-2 [1] = assay: microbe, parasite or virus in culture; assay type: cell-based
SARS-CoV-2 3CLpro [2] = biological target: T1, SARS-CoV-2 3CLpro (Severe acute respiratory syndrome coronavirus 2, UniProt P0DTD1); assay: biochemical; assay type: biochemical; conditions: for inhibitory activity in library screen: compound concentration of 100 μM
SARS-CoV-2 [3] = assay: Clinical examples 1-3, treatment of COVID-19 / SARS-CoV-2 positive subjects; assay type: in vivo
Source text: Example 1: The following example describes treatment strategies for COVID-19 involving oral administration of an antiviral composition.
A physician diagnoses a patient with COVID-19. The patient is experiencing mild symptoms. […] The patient is to take the tablet once a day for one week. The patient is highly responsive and their symptoms go away after 2 days.
Example 2: The following example describes treatment strategies for intravenous administration of an antiviral composition.
A diabetic patient is hospitalized with severe COVID-19. […] The medication is added to an IV solution and delivered intravenously, twice a day for three days. The patient is highly responsive and experiences a reduction in their symptoms during the initial treatment period.
A subject tests positive for SARS-CoV-2 but is asymptomatic. […] The subject sprays the inside of their nose once a day for 5 days. The subject remains asymptomatic.

SARS-CoV-2 3CLpro [4] = biological target: T1, SARS-CoV-2 3CLpro; assay: Surface plasmon resonance binding to immobilized 3CLpro; conditions: 0.164-100 μM, 25° C.
SARS-CoV-2 3CLpro [5] = biological target: T1, SARS-CoV-2 3CLpro; assay: Enzyme kinetics, Lineweaver-Burk plots; assay type: biochemical; conditions: for Inhibition Type: Michaelis-Menten kinetics; for effect on Vmax of 3CLpro: compared to the DMSO control, 5 μM or 10 μM inhibitor
SARS-CoV-2 3CLpro [6] = biological target: T1, SARS-CoV-2 3CLpro; assay: Inhibition of cleavage of TriPro substrate protein, SDS-PAGE; assay type: biochemical; conditions: 0.8 μM 3CLpro
SARS-CoV-2 3CLpro [7] = biological target: T1, SARS-CoV-2 3CLpro; assay: Microscale thermophoresis ligand binding; conditions: 10 nM labeled 3CLpro; read-out: KD (MST)
Source text: Monolith NT.115 Microscale Thermophoresis (MST) instrument (NanoTemper Technologies) was used for this assay. Monolith protein labeling kit RED-NHS was purchased from NanoTemper Technologies. Briefly, 3CLpro protein was labeled using RED-NHS labelling kit (NanoTemper) following the manufacturer's instructions. […] The assay was read in 20% excitation power and medium MST power.

SARS-CoV-2 3CLpro [8] = biological target: T1, SARS-CoV-2 3CLpro; conditions: at 50 μM concentration; cited from earlier work
SARS-CoV 3CLpro = SARS-CoV 3CLpro (Severe acute respiratory syndrome coronavirus, UniProt P0C6X7); conditions: cited from earlier work
SARS-CoV = conditions: cited from earlier work
[9] = Severe acute respiratory syndrome coronavirus 2, Table 2 and text, SARS-CoV-2 viral replication, cell-based antiviral assay
[10] = Severe acute respiratory syndrome coronavirus 2, 48 h
[11] = FRET peptide substrate, 200 nM 3CLpro, read-out: SARS-CoV-2 3CLpro IC50

SMILES: CC(C)(C)NC(=O)N[C@H](C(=O)N1C[C@H]2[C@@H]([C@H]1C(=O)NC(CC1CCC1)C(=O)C(N)=O)C2(C)C)C(C)(C)C (some centres unmarked) [Boceprevir, boceprevir, reference compound]
- EC50 (SARS-CoV-2 [1]; [9]): 15.6 µM

SMILES: O=C(Nc1ccc([N+](=O)[O-])cc1Cl)c1cccc([N+](=O)[O-])c1O [JMX0207]
- CC50 at 48 h (in vitro): 13.2 µM
- EC50 (SARS-CoV-2 [1]; [10]): 1.22 µM

SMILES: CC(C)[C@H](NC(=O)c1cc(Cl)ccc1O)C(=O)Nc1ccc([N+](=O)[O-])cc1Cl [JMX0281]
- CC50 at 48 h (in vitro): 8.32 µM
- EC50 (SARS-CoV-2 [1]; [10]): 2.08 µM

SMILES: O=C(NC(Cc1ccccc1)C(=O)Nc1ccc([N+](=O)[O-])cc1Cl)c1cc(Cl)ccc1O (centres unmarked) [JMX0285]
- CC50 at 48 h (in vitro): 6.13 µM
- EC50 (SARS-CoV-2 [1]; [10]): 3.03 µM

SMILES: Cl.NCCOc1ccc(Cl)cc1C(=O)NCC(=O)Nc1ccc([N+](=O)[O-])cc1Cl [JMX0286, 2-(2-Aminoethoxy)-5-chloro-N-(2-((2-chloro-4-nitrophenyl)amino)-2-oxoethyl)benzamide hydrochloride]
- IC50 (SARS-CoV-2 3CLpro [2]; [11]): 4.8 µM
- inhibitory activity in library screen (SARS-CoV-2 3CLpro [2]): prominent inhibitory activity
- side effects (SARS-CoV-2 [3]; Example 1: oral tablet 50 mg once a day for one week): No side effects are reported
- clinical outcome (SARS-CoV-2 [3]; Example 1: oral tablet 50 mg once a day for one week, mild COVID-19): completely recovers
- Kd (SARS-CoV-2 3CLpro [4]; read-out: KD (SPR, steady-state affinity model)): 9.8 µM
- EC50 (SARS-CoV-2 [1]; [10]): 2.25 µM
- CC50 (A549 and Vero E6 cells; Table 1, cell line not given): 3.78 µM
- Inhibition Type (SARS-CoV-2 3CLpro [5]; hydrochloride): non-competitive inhibition mechanism
- effect on Vmax of 3CLpro (SARS-CoV-2 3CLpro [5]): reduced the Vmax values
- inhibition of cleavage of the TriPro substrate protein (SARS-CoV-2 3CLpro [6]; hydrochloride): inhibited the cleavage of the TriPro substrate protein in a dose dependent manner; also recorded: inhibit the digestion of protein substrates in a dose dependent manner

SMILES: CC(C)(C)OC(=O)NCCOc1ccc(Cl)cc1C(=O)NCC(=O)Nc1ccc([N+](=O)[O-])cc1Cl [JMX0301, tert-Butyl(2-(4-chloro-2-((2-((2-chloro-4-nitrophenyl)amino)-2-oxoethyl)carbamoyl)phenoxy)ethyl)carbamate]
- IC50 (SARS-CoV-2 3CLpro [2]; [11]): 4.5 µM
- inhibitory activity in library screen (SARS-CoV-2 3CLpro [2]): prominent inhibitory activity
- clinical outcome (SARS-CoV-2 [3]; Example 2: 100 mg with remdesivir 100 mg intravenously twice a day for three days, then 50 mg tablet, severe COVID-19): completely recovers
- side effects (SARS-CoV-2 [3]; Example 2: intravenous with remdesivir, then tablet): No side effects are reported
- KD (SPR, steady-state affinity model) (SARS-CoV-2 3CLpro [4]): did not show binding
- EC50 (μM) (SARS-CoV-2 [1]; Table 2, SARS-CoV-2 viral replication, cell-based antiviral assay): No Dose
- Inhibition Type (SARS-CoV-2 3CLpro [5]): non-competitive inhibition mechanism
- effect on Vmax of 3CLpro (SARS-CoV-2 3CLpro [5]): reduced the Vmax values
- inhibition of cleavage of the TriPro substrate protein (SARS-CoV-2 3CLpro [6]): inhibited the cleavage of the TriPro substrate protein in a dose dependent manner; also recorded: inhibit the digestion of protein substrates in a dose dependent manner
- Kd (SARS-CoV-2 3CLpro [7]): 34 µM

SMILES: O=C(Nc1ccc(C(F)(F)F)cc1Cl)c1cc(Cl)ccc1O [JMX0308]
- EC50 value (strong inhibition of SARS-CoV-2 virus) (SARS-CoV-2 [1]): sub-micromolar range
- EC50 (SARS-CoV-2 [1]; [10]): 0.806 µM

SMILES: O=C(Nc1ccc(C(F)(F)F)cc1Cl)c1cccc([N+](=O)[O-])c1O [JMX0310, N-(2-Chloro-4-(trifluoromethyl)phenyl)-2-hydroxy-3-nitrobenzamide]
- EC50 (SARS-CoV-2 [1]; [10]): 2.41 µM
- CC50 (A549 and Vero E6 cells; Table 1, cell line not given): 10.1 µM

SMILES: O=C(Nc1cc(F)cc(C(F)(F)F)c1)c1cc(Cl)ccc1O [JMX0312]
- CC50 at 48 h (in vitro): 1.97 µM
- EC50 (SARS-CoV-2 [1]; [10]): 1.13 µM

SMILES: O=C(Nc1cc(F)cc(C(F)(F)F)c1)c1cccc([N+](=O)[O-])c1O [JMX0317, N-(3-Fluoro-5-(trifluoromethyl)phenyl)-2-hydroxy-3-nitrobenzamide]
- EC50 (SARS-CoV-2 [1]; [10]): 4.03 µM
- CC50 (A549 and Vero E6 cells; Table 1, cell line not given): 11.7 µM

SMILES: O=C(Nc1ccc(F)c(F)c1)c1cc(Cl)ccc1O [JMX0321]
- CC50 at 48 h (in vitro): 3.76 µM
- EC50 (SARS-CoV-2 [1]; [10]): 1.19 µM

SMILES: O=C(Nc1cc(C(F)(F)F)cc(C(F)(F)F)c1)c1cc(Cl)ccc1O [JMX0325]
- CC50 at 48 h (in vitro): 1.81 µM
- EC50 value (strong inhibition of SARS-CoV-2 virus) (SARS-CoV-2 [1]): sub-micromolar range
- EC50 (SARS-CoV-2 [1]; [10]): 0.123 µM

SMILES: O=C(Nc1cc(C(F)(F)F)cc(C(F)(F)F)c1)c1cccc([N+](=O)[O-])c1O [JMX0330, N-(3,5-Bis(trifluoromethyl)phenyl)-2-hydroxy-3-nitrobenzamide]
- EC50 value (strong inhibition of SARS-CoV-2 virus) (SARS-CoV-2 [1]): sub-micromolar range
- EC50 (SARS-CoV-2 [1]; [10]): 0.498 µM
- CC50 (A549 and Vero E6 cells; Table 1, cell line not given): 10.2 µM

SMILES: CC1(Nc2ccc(NC(=O)c3cc(Cl)ccc3O)c(Cl)c2)CCCC1 [JMX0510-2]
- EC50 (SARS-CoV-2 [1]): 4.88 µM
- CC50 (A549 and Vero E6 cells): 11.5 µM

SMILES: CC(C)C[C@H](NC(=O)c1cc(Cl)ccc1O)C(=O)Nc1ccc([N+](=O)[O-])cc1Cl [JMX0671]
- CC50 at 48 h (in vitro): 8.03 µM
- EC50 (SARS-CoV-2 [1]; [10]): 1.56 µM

SMILES: CC(C)[C@H](NC(=O)c1cc(Cl)ccc1O)C(=O)Nc1ccc(C(F)(F)F)cc1Cl [JMX0672]
- CC50 at 48 h (in vitro): 8.34 µM
- EC50 (SARS-CoV-2 [1]; [10]): 1.92 µM

SMILES: CCC(C)[C@H](NC(=O)c1cc(Cl)ccc1O)C(=O)Nc1ccc([N+](=O)[O-])cc1Cl (some centres unmarked) [JMX0673]
- CC50 at 48 h (in vitro): 5.2 µM
- EC50 (SARS-CoV-2 [1]; [10]): 1.74 µM

SMILES: C[C@H](NC(=O)c1cc(Cl)ccc1O)C(=O)Nc1ccc([N+](=O)[O-])cc1Cl [JMX0674]
- CC50 at 48 h (in vitro): > 10 µM
- EC50 (SARS-CoV-2 [1]; [10]): 9.75 µM

SMILES: CC(C)[C@H](NC(=O)c1cc(Cl)ccc1O)C(=O)Nc1cc(C(F)(F)F)cc(C(F)(F)F)c1 [JMX0679]
- CC50 at 48 h (in vitro): 7.14 µM
- EC50 (SARS-CoV-2 [1]; [10]): 2.51 µM

SMILES: CC(C)[C@H](NC(=O)c1cc(Cl)ccc1O)C(=O)Nc1cc(F)cc(C(F)(F)F)c1 [JMX0680]
- CC50 at 48 h (in vitro): 10.1 µM
- EC50 (SARS-CoV-2 [1]; [10]): 4.57 µM

SMILES: CC(C)[C@H](NC(=O)c1cc(Cl)ccc1O)C(=O)Nc1ccc(F)c(F)c1 [JMX0681]
- CC50 at 48 h (in vitro): > 10 µM
- EC50 (SARS-CoV-2 [1]; [10]): 9.75 µM

SMILES: O=C(Nc1cc(F)cc(C(F)(F)F)c1)c1ccc(Cl)cc1O [JMX0887]
- CC50 at 48 h (in vitro): 4.18 µM
- EC50 value (strong inhibition of SARS-CoV-2 virus) (SARS-CoV-2 [1]): sub-micromolar range
- EC50 (SARS-CoV-2 [1]; [10]): 0.92 µM

SMILES: O=C(Nc1ccc([N+](=O)[O-])cc1)c1cc(Cl)ccc1O [JMX0895]
- EC50 value (strong inhibition of SARS-CoV-2 virus) (SARS-CoV-2 [1]): sub-micromolar range
- EC50 (SARS-CoV-2 [1]; [10]): 0.665 µM

SMILES: O=C(Nc1ccc([N+](=O)[O-])c(Cl)c1)c1cc(Cl)ccc1O [JMX0941]
- inhibitory activity in library screen (SARS-CoV-2 3CLpro [2]): prominent inhibitory activity
- side effects (SARS-CoV-2 [3]; Example 3: intranasal spray 10 mg once a day for 5 days): No side effects are reported
- SARS-CoV-2 test on the 6th day (SARS-CoV-2 [3]; Example 3: intranasal spray 10 mg once a day for 5 days, asymptomatic subject): negative for SARS-CoV-2
- EC50 (SARS-CoV-2 [1]; [10]): 1.75 µM
- EC50 (SARS-CoV-2 [1]; [9]): 1.7 µM
- Inhibition Type (SARS-CoV-2 3CLpro [5]): non-competitive inhibition mechanism
- effect on Vmax of 3CLpro (SARS-CoV-2 3CLpro [5]): reduced the Vmax values
- inhibition of cleavage of the TriPro substrate protein (SARS-CoV-2 3CLpro [6]): inhibited the cleavage of the TriPro substrate protein in a dose dependent manner; also recorded: inhibit the digestion of protein substrates in a dose dependent manner

SMILES: O=C(Nc1ccc([N+](=O)[O-])cc1Cl)c1cc(Cl)ccc1O [Niclosamide, niclosamide]
- IC50 (SARS-CoV-2 3CLpro [2]): > 50 µM
- inhibition of the SARS-CoV-2 3CLpro (SARS-CoV-2 3CLpro [8]): does not inhibit
- inhibitory activity against SARS-CoV 3CLpro (SARS-CoV 3CLpro): no obvious inhibitory activity
- EC50 (SARS-CoV; Vero E6 cells, read-out: EC50, SARS-CoV replication): < 0.1 µM
- concentration suppressing the cytopathic effect (CPE) of SARS-CoV (SARS-CoV; as low as): 1 µM
